How the values were obtained:
[1] = tested on: Human immunodeficiency virus 1; experiment: Antiviral activity against HIV1 3B assessed as inhibition of viral attachment to human MAGI cells; format: functional, organism-based; details: Human immunodeficiency virus 1, 3B
[2] = target: T1, C-X-C chemokine receptor type 4 (Homo sapiens, UniProt P61073); experiment: Antagonist activity at CXCR4 in human Chem-1 cells assessed as inhibition of CXCL12-induced calcium flux; format: functional, cell-based
T1 sequence (P61073 whole entry): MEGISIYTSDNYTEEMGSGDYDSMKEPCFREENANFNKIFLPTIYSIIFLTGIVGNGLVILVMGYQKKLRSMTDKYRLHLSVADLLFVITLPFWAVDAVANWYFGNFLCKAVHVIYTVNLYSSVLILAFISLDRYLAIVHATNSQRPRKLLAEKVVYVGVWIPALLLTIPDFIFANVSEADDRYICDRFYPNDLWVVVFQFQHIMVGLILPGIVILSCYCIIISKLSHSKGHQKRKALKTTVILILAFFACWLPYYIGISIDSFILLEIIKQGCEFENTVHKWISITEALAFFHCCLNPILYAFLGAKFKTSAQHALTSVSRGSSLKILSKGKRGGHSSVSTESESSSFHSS

[3] = Cytotoxicity against human MAGI cells; format: cell-based; details: read-out: TC50 (the source's name)
[4] = Cytotoxicity against human Chem1 cells; format: cell-based; details: read-out: TC50 (the source's name)
[5] = target: T1, C-X-C chemokine receptor type 4
Description: Displacement of [125I]-SDF-1 from CXCR4 (unknown origin)

[6] = tested on: Human immunodeficiency virus 1; experiment: Antiviral activity against HIV1 3B infected in PBMC; format: functional, organism-based; details: Human immunodeficiency virus 1, 3B
hERG (KCNH2) [7] = target: T2, hERG (KCNH2) (Homo sapiens, UniProt Q12809); experiment: Displacement of [3H]-dofetilide from human ERG in HEK293 cells at 1 uM; format: cell-based; details: HEK293 cells that express hERG, probe [3H]-dofetilide
T2 sequence (Q12809 whole entry): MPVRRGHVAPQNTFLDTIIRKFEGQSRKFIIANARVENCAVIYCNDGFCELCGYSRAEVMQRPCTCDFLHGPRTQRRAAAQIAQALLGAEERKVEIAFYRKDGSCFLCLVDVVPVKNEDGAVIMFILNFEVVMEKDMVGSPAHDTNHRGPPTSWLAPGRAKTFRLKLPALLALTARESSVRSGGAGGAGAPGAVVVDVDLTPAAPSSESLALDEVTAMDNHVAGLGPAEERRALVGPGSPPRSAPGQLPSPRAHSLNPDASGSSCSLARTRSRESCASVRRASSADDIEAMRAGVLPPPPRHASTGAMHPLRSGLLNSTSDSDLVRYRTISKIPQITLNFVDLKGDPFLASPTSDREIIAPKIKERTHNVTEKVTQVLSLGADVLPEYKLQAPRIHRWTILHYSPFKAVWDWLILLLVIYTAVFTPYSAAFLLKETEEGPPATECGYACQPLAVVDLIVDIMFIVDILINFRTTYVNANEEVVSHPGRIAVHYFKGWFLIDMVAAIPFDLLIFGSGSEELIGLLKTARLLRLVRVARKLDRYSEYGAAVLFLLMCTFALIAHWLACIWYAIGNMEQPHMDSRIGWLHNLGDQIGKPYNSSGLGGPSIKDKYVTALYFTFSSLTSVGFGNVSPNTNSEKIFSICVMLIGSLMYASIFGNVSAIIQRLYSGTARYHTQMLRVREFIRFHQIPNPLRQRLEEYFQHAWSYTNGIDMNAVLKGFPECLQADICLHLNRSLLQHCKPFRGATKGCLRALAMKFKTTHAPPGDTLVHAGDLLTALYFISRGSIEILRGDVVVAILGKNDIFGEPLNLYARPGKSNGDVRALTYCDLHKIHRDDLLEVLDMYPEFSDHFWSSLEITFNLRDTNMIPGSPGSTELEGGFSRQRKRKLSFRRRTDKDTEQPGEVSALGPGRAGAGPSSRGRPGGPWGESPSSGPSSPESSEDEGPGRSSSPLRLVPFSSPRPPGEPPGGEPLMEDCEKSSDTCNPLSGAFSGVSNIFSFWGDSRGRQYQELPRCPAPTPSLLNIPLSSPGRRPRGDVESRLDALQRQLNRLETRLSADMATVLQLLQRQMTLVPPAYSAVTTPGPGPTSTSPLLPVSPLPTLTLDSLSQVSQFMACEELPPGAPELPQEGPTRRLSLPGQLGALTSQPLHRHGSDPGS

hERG (KCNH2) [8] = target: T2, hERG (KCNH2); experiment: Displacement of [3H]-dofetilide from human ERG in HEK293 cells at 10 uM; format: cell-based; details: HEK293 cells that express hERG, probe [3H]-dofetilide
CYP3A4 = CYP3A4 (Homo sapiens, UniProt P08684); experiment: Inhibition of human CYP3A4 at 1 uM
Sequence of CYP3A4 (P08684 whole entry): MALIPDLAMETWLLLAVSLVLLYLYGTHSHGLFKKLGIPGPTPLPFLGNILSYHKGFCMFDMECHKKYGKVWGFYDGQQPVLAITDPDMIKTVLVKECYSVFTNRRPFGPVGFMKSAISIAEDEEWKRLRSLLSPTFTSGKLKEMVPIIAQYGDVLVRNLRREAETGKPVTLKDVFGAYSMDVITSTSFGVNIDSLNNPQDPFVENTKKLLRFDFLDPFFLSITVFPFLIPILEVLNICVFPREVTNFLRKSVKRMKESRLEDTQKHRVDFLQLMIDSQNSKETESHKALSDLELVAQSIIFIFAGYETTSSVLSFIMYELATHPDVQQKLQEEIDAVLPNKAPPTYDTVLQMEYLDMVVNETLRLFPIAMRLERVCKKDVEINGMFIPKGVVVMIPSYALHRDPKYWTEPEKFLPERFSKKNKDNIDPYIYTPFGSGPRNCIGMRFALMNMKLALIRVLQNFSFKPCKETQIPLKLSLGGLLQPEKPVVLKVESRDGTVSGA

CYP2C19 = CYP2C19 (Homo sapiens, UniProt P33261); experiment: Inhibition of human CYP2C19 at 1 uM; format: ADME
Sequence of CYP2C19 (P33261 whole entry): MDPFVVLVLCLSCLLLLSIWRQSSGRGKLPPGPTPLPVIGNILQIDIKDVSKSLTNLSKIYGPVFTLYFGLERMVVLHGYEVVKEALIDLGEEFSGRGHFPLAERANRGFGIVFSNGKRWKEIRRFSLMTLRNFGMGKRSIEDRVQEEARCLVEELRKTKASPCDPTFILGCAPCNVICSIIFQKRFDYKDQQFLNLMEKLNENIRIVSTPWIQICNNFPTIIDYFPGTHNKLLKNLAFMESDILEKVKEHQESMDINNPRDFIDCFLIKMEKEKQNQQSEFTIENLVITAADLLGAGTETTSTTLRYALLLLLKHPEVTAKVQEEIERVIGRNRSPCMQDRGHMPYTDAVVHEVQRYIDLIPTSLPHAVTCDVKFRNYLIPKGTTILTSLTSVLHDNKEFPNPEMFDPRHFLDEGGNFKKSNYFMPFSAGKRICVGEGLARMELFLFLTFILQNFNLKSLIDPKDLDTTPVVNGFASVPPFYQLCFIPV

CYP2D6 = CYP2D6 (Homo sapiens, UniProt P10635); experiment: Inhibition of human CYP2D6 at 1 uM
Sequence of CYP2D6 (P10635 whole entry): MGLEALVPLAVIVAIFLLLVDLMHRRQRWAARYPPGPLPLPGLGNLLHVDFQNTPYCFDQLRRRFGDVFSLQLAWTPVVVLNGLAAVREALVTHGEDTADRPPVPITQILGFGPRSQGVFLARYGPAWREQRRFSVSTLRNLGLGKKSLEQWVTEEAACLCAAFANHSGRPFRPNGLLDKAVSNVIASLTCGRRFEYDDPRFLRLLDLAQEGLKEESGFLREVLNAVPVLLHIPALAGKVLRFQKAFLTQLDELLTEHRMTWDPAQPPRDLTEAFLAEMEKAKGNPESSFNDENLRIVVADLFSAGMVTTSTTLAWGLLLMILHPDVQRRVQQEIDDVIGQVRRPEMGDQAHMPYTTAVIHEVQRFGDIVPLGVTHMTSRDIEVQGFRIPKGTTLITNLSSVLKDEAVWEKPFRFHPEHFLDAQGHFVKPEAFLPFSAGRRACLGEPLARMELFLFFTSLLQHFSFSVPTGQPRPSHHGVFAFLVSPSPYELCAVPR

[9] = Selectivity ratio of IC50 for CXCR4 in human Chem-1 cells to IC50 for HIV1 3B assessed as inhibition of viral attachment to human MAGI cells; format: cell-based

SMILES | IC50 [1] [nM] | IC50 [2] [nM] | CC50 [3] [nM] | CC50 [4] [nM] | also measured
NCCCCN(C[C@H]1CN(Cc2ccccc2)CCN1)[C@H]1CCCc2cccnc21 | – | 230 | > 10000 | > 10000 | –
NCCCCN(C[C@@H]1CN(Cc2ccccc2)CCN1)[C@H]1CCCc2cccnc21 | – | 190 | > 10000 | > 10000 | IC50 [5]: 2920 nM
NCCCCN(C[C@H]1CNCCN1C(=O)c1ccccc1)[C@H]1CCCc2cccnc21 | > 100000 | – | > 10000 | > 10000 | –
NCCCCN(C[C@@H]1CNCCN1C(=O)c1ccccc1)[C@H]1CCCc2cccnc21 | > 100000 | – | > 10000 | > 10000 | –
NCCCCN(C[C@H]1CN(S(=O)(=O)c2ccccc2)CCN1)[C@H]1CCCc2cccnc21 | – | 2 | > 10000 | > 10000 | –
NCCCCN(C[C@@H]1CN(S(=O)(=O)c2ccccc2)CCN1)[C@H]1CCCc2cccnc21 | – | 23 | > 10000 | > 10000 | inhibition at 1 µM (hERG (KCNH2) [7]): 37%; inhibition at 10 µM (hERG (KCNH2) [8]): 79%; inhibition at 1 µM (CYP3A4): 0%; inhibition at 1 µM (CYP2C19): 2%; inhibition at 1 µM (CYP2D6): 41%
NCCCCN(C[C@H]1CN(S(=O)(=O)c2ccc3ccccc3c2)CCN1)[C@H]1CCCc2cccnc21 | 4600 | 71 | > 10000 | > 10000 | –
NCCCCN(C[C@H]1CN(S(=O)(=O)c2cc3ccccc3s2)CCN1)[C@H]1CCCc2cccnc21 | 3440 | 39 | > 10000 | > 10000 | –
NCCCCN(Cc1nc2ccccc2[nH]1)[C@H]1CCCc2cccnc21 [MAVORIXAFOR] | – | – | – | – | inhibition at 1 µM (CYP2C19): 20%; inhibition at 1 µM (CYP2D6): 100%

Second part, led by results:

IC50 [1] [nM] | IC50 [2] [nM] | SMILES | CC50 [3] [nM] | CC50 [4] [nM] | also measured
310 | 255 | NCCCCN(C[C@H]1CNCCN1)[C@H]1CCCc2cccnc21 | > 10000 | > 10000 | –
1100 | 1200 | NCCCCN(C[C@@H]1CNCCN1)[C@H]1CCCc2cccnc21 | > 10000 | > 10000 | –
60 | 2 | NCCCCN(C[C@H]1CN(C(=O)c2ccccc2)CCN1)[C@H]1CCCc2cccnc21 | > 10000 | > 10000 | –
20 | 6 | NCCCCN(C[C@@H]1CN(C(=O)c2ccccc2)CCN1)[C@H]1CCCc2cccnc21 | > 10000 | > 10000 | IC50 [6]: 88 nM; inhibition at 1 µM (hERG (KCNH2) [7]): 18%; inhibition at 10 µM (hERG (KCNH2) [8]): 55%; inhibition at 1 µM (CYP3A4): 0%; inhibition at 1 µM (CYP2C19): 2%; inhibition at 1 µM (CYP2D6): 19%; Ratio IC50 [9]: 0.3
150 | 35 | NCCCCN(C[C@@H]1CN(C(=O)c2ccco2)CCN1)[C@H]1CCCc2cccnc21 | > 10000 | > 10000 | –
340 | 18 | NCCCCN(C[C@H]1CN(C(=O)OCc2ccccc2)CCN1)[C@H]1CCCc2cccnc21 | > 10000 | > 10000 | –
1350 | – | NCCCCN(C[C@@H]1CN(C(=O)OCc2ccccc2)CCN1)[C@H]1CCCc2cccnc21 | > 10000 | > 10000 | –
50 | 2 | NCCCCN(C[C@H]1CN(S(=O)(=O)c2ccc(Cl)cc2)CCN1)[C@H]1CCCc2cccnc21 | > 10000 | > 10000 | –
350 | – | NCCCCN(C[C@H]1CN(C(=O)Nc2ccccc2)CCN1)[C@H]1CCCc2cccnc21 | > 10000 | > 10000 | –
720 | 130 | NCCCCN(CC1CN(c2ccccc2)CCN1)[C@H]1CCCc2cccnc21 (mixture of isomers) | > 10000 | > 10000 | –
210 | – | NCCCCN(CC1CN(C(=O)c2ccco2)CCN1)[C@H]1CCCc2cccnc21 (mixture of isomers) | > 10000 | > 10000 | –
